These results are taken from paper PMC6389993, “Quercetin and its metabolite isorhamnetin promote glucose uptake through different signalling pathways in myotubes” (Scientific Reports, 2019).

Each structure is given as a SMILES string.

What all share (format): cell-based, rat
One test deals with JAK2. Put plainly: Phosphorylation of JAK2 in L6 myotubes (western blot). To be noted: 15 min; for phosphorylation of JAK2: higher concentrations (1 μM and 10 μM). As for the experimental part: (§1) For in vitro cell culture experiments, after serum starvation for 18 h, myotubes were treated with various concentrations of quercetin or isorhamnetin (0.1–10 nM) for 15 min; DMSO (final 0.1%) was used as a vehicle control. As positive controls, 100 nM insulin, 1 mM AICAR, 10 nM leptin, or 100 ng/mL IL-15 were used for insulin, AMPK, JAK2/STAT, or JAK3/STAT signalling pathways, respectively. Cells were treated with insulin or AICAR for 15 min, leptin for 60 min, or IL-15 for 24 h. Whole protein and plasma membrane fractions were prepared from myotubes, as previously described. For in vivo experiment, plasma membrane fraction and tissue lysate of soleus muscle were prepared.
Translocation of GLUT4 to the plasma membrane, as well as expression and phosphorylation levels of GLUT4-related regulators were estimated by western blot analysis. Briefly, equal amounts of proteins were separated by sodium dodecyl sulfate-polyacrylamide gel electrophoresis (SDS-PAGE). Separated proteins were transferred onto a polyvinylidene fluoride membrane and nonspecific binding sites were blocked using either Blocking One (to detect unphosphorylated proteins) or Blocking One-P (to detect phosphoproteins). […] Specific immune complexes were developed using ImmunoStar® LD and detected with an ATTO Light-Capture II Western Blotting Detection System. Individual band density was calculated by ImageJ and normalized to the control. […]
(§2) 59 complexes were developed using ImmunoStar® LD and detected with an ATTO Light-Capture
(§3) 60 Ⅱ Western Blotting Detection System. Individual band density was calculated by ImageJ and […]
In general terms: Immunoblotting shows a protein as a band on a membrane.

A further test deals with Akt. The test can be described thus: Phosphorylation of Akt in L6 myotubes (western blot). To be noted: 15 min; for Akt phosphorylation at Ser473: higher concentrations (1 μM and 10 μM). As for the experimental part:
as §1
(§4) Translocation of GLUT4 to the plasma membrane, as well as expression and phosphorylation levels of GLUT4-related regulators were estimated by western blot analysis. Briefly, equal amounts of proteins were separated by sodium dodecyl sulfate-polyacrylamide gel electrophoresis (SDS-PAGE). Separated proteins were transferred onto a polyvinylidene fluoride membrane and nonspecific binding sites were blocked using either Blocking One (to detect unphosphorylated proteins) or Blocking One-P (to detect phosphoproteins). The membrane was incubated overnight with an appropriate primary antibody for GLUT4 (1:5000), IR (1:10000), p-IRS1 (1:5000), IRS1 (1:5000), p-PI3K (1:5000), PI3K (1:10000), p-Akt (1:5000), Akt (1:10000), p-AMPKα (1:5000), AMPKα (1:10000), p-ACC (1:5000), ACC (1:10000), p-LKB1 (1:5000), LKB1 (1:10000), p-JAK2 (1:5000), JAK2 (1:5000), p-JAK3 (1:5000), JAK3 (1:10000), p-STAT1 (1:5000), STAT1 (1:10000), p-STAT3 (1:5000), STAT3 (1:10000), p-STAT5 (1:5000), STAT5 (1:10000), or β-actin (1:20000), and subsequently treated with the corresponding horseradish peroxidase-conjugated secondary antibody (1:50000) for 1 h. Specific immune complexes were developed using ImmunoStar® LD and detected with an ATTO Light-Capture II Western Blotting Detection System. Individual band density was calculated by ImageJ and normalized to the control.
(§5) 42 after morphological analysis of differentiation status using phase-contrast microscopy.
(§6) 43 Preparation of whole protein and plasma membrane fractions After serum starvation
(§7) 44 for 18 h, myotubes were treated with various concentrations of quercetin or isorhamnetin (1–
45 10 μM) for 15 min; DMSO (final 0.1%) was used as a vehicle control. As positive controls,
46 100 nM insulin, 1 mM AICAR, or 10 nM leptin were used for insulin, AMPK or JAK2/STAT
47 signalling pathways, respectively. Cells were treated with insulin or AICAR for 15 min, or
48 leptin for 60 min. […]
as §2, §3

The next test deals with PI3K. Put plainly: Phosphorylation of PI3K in L6 myotubes (western blot). To be noted: 15 min. As for the experimental part:
as §1
Translocation of GLUT4 to the plasma membrane, as well as expression and phosphorylation levels of GLUT4-related regulators were estimated by western blot analysis. Briefly, equal amounts of proteins were separated by sodium dodecyl sulfate-polyacrylamide gel electrophoresis (SDS-PAGE). […] Specific immune complexes were developed using ImmunoStar® LD and detected with an ATTO Light-Capture II Western Blotting Detection System. Individual band density was calculated by ImageJ and normalized to the control.

Another test concerns AMPK. Put plainly: Phosphorylation of AMPK in L6 myotubes (western blot). The settings on record: 15 min. As for the experimental part:
In vitro cultured cell experiments were conducted according to a previously described protocol[6],[14]. Briefly, L6 myoblasts derived from rat skeletal muscle and of less than 40 passages were maintained in MEM supplemented with 10% foetal bovine serum (FBS) and antibiotics (100 U/ml penicillin and 100 μg/ml streptomycin) at 37 °C under a humidified atmosphere condition of 5% CO2 and 95% air. In each experiment, cells (2.2 × 10^4 cells/ml) were seeded into 96-well plates or 60-mm dishes for induction of differentiation into mature myotubes. After reaching confluence, cells were supplemented with differentiation medium containing 2% FBS and the same antibiotics for 7 days. Cells were used for each experiment after morphological analysis of differentiation status using phase-contrast microscopy. To explore the contribution of CaMKKβ or intracellular-free calcium ions in quercetin- and isorhamnetin-stimulated GLUT4 translocation, L6 cells were incubated in the presence or absence of 10 μM STO-609 and 25 μM […], respectively, for 30 min prior to treatment with either quercetin or isorhamnetin.
as §1, §4, §5, §6, §7
45 10 μM) for 15 min; DMSO (final 0.1%) was used as a vehicle control. As positive controls, […]

[1] abbreviates: higher concentrations (1 μM and 10 μM).

For `COc1cc(-c2oc3cc(O)cc(O)c3c(=O)c2O)ccc1O` [isorhamnetin, 3′-O-methyl quercetin], in the test on JAK2, the “phosphorylation of JAK2” value is on record as “induced phosphorylation of JAK2”. Further, in the test with JAK2 (physiological concentration range (0.1–10 nM)), the JAK2 phosphorylation entry is “effectively promoted”. Besides, the Akt phosphorylation result in the test on Akt (0.1–10 nM) is “did not affect Akt phosphorylation”. In the test with Akt, the “Akt phosphorylation at Ser473” value is “significantly increased Akt phosphorylation”. Moreover, the “phosphorylation of PI3K” value in the test on PI3K (0.1 nM) is on record as “increased PI3K phosphorylation”. Further, the AMPK phosphorylation result in the test with AMPK (setting [1]) is reported as “induced phosphorylation of AMPK”.
On to `O=c1c(O)c(-c2ccc(O)c(O)c2)oc2cc(O)cc(O)c12` [quercetin, 3,3′,4′,5,7-pentahydroxy flavone], for which, in the test with JAK2, the “phosphorylation of JAK2” value is “induced phosphorylation of JAK2”. For the same compound, in the test on Akt (10 nM), the “Akt phosphorylation at Thr308 and Ser473” value was “increased Akt phosphorylation”. For the same compound, the “Akt phosphorylation at Ser473” value in the test with Akt is given as “significantly increased Akt phosphorylation”. The “phosphorylation of PI3K” value with PI3K (0.1–10 nM) was “significantly increased phosphorylation of PI3K”. The AMPK phosphorylation entry with AMPK (0.1 nM and 1 nM) was “promoted AMPK phosphorylation”; in the test on AMPK (setting [1]), “induced phosphorylation of AMPK”.
